Reference: article PMC6522510 (Nature Communications, 2019)
Read-outs that look alike come from different tables or passages of the source.

Experiments:
CHRF288-11 [1] = assay: Secondary dose-response HTS, Cell Titer Glo; type: cell-based, human; conditions: for EC50: Homo sapiens
CMS [2] = assay: Secondary dose-response HTS, Cell Titer Glo; type: cell-based, human; conditions: Homo sapiens
M07e [3] = assay: Secondary dose-response HTS, Cell Titer Glo; type: cell-based, human; conditions: for EC50: Homo sapiens, M-07e
ML2 = assay: Secondary dose-response HTS, Cell Titer Glo; type: cell-based, human; conditions: ML-2; for EC50: Homo sapiens
U937 [4] = assay: Secondary dose-response HTS, Cell Titer Glo; type: cell-based, human; conditions: for EC50: Homo sapiens, U-937
[5] = test system: panel of 8 AML cell lines; assay: Secondary dose-response HTS, whole panel; type: cell-based, human; conditions: secondary HTS (Supplementary Data 2)
MOLM-13 [6] = assay: Secondary dose-response HTS, Cell Titer Glo; type: cell-based, human; conditions: Homo sapiens, MOLM-13
[7] = test system: MLLr primary AML blast samples; assay: Ex vivo drug treatment of primary AML blasts on mesenchymal stromal cells; type: cell-based; conditions: Homo sapiens; primary blasts on MSC, 96 h, range over patient samples
[8] = test system: AMKL primary AML blast samples; assay: as above; type: cell-based; conditions: Homo sapiens; primary blasts on MSC, 96 h
[9] = test system: FLT3-ITD+ primary AML blast samples
MV4-11 [10] = assay: cells; set-up: species or system AML cell lines (8); Secondary HTS, 10-point dose-response in triplicate, Cell Titer Glo viability, four-parameter fit EC50; conditions: Homo sapiens, MV4-11, 72 h, read-out: MV4-11
CHRF288-11 [11] = assay: cells; set-up: species or system AML cell lines (8); Secondary HTS, 10-point dose-response in triplicate, Cell Titer Glo viability, four-parameter fit EC50; conditions: 72 h, read-out: CHRF288-11
CMK [12] = assay: cells; set-up: species or system AML cell lines (8); Secondary HTS, 10-point dose-response in triplicate, Cell Titer Glo viability, four-parameter fit EC50; conditions: Homo sapiens, CMK, 72 h, read-out: CMK
M07e [13] = assay: cells; set-up: species or system AML cell lines (8); Secondary HTS, 10-point dose-response in triplicate, Cell Titer Glo viability, four-parameter fit EC50; conditions: M-07e, 72 h, read-out: M07e
ML-2 [14] = assay: cells; set-up: species or system AML cell lines (8); Secondary HTS, 10-point dose-response in triplicate, Cell Titer Glo viability, four-parameter fit EC50; conditions: Homo sapiens, ML-2, 72 h, read-out: ML-2
U937 [15] = assay: cells; set-up: species or system AML cell lines (8); Secondary HTS, 10-point dose-response in triplicate, Cell Titer Glo viability, four-parameter fit EC50; conditions: Homo sapiens, U-937, 72 h, read-out: U937
MV4-11 [16] = assay: Secondary dose-response HTS, Cell Titer Glo; type: cell-based, human; conditions: Homo sapiens, MV4-11
CMK [17] = assay: Secondary dose-response HTS, Cell Titer Glo; type: cell-based, human; conditions: CMK; for EC50: Homo sapiens
CHRF288-11 [18] = type: cell-based; conditions: Homo sapiens; 72 h, Cell Titer Glo; read-out: IC50 CHRF288-11
CMS [19] = type: cell-based; conditions: Homo sapiens; 72 h, Cell Titer Glo; read-out: IC50 CMS
ML-2 [20] = type: cell-based; conditions: Homo sapiens, 72 h, Cell Titer Glo
MOLM-13 [21] = type: cell-based; conditions: Homo sapiens, 72 h, Cell Titer Glo
MV4-11 [22] = type: cell-based; conditions: Homo sapiens, 72 h, Cell Titer Glo
THP-1 = type: cell-based; conditions: Homo sapiens, 72 h, Cell Titer Glo
U937 [23] = type: cell-based; conditions: Homo sapiens, U-937; 72 h, Cell Titer Glo
MOLM-13 [24] = assay: cells; set-up: species or system AML cell lines (8); Secondary HTS, 10-point dose-response in triplicate, Cell Titer Glo viability, four-parameter fit EC50; conditions: Homo sapiens, MOLM-13, 72 h, read-out: MOLM-13
CMS [25] = assay: cells; set-up: species or system AML cell lines (8); Secondary HTS, 10-point dose-response in triplicate, Cell Titer Glo viability, four-parameter fit EC50; conditions: 72 h, read-out: CMS
[26] = HTS, secondary high-throughput screen, CHRF288-11, read-out: average effective concentration, CHRF288-11
[27] = HTS, secondary high-throughput screen, CMS, read-out: average effective concentration, CMS
[28] = secondary high-throughput screen, M07e, read-out: average effective concentration, M07e
[29] = secondary high-throughput screen, read-out: average effective concentration, ML-2
[30] = secondary high-throughput screen, U937, read-out: average effective concentration, U937
[31] = secondary high-throughput screen, read-out: average effective concentration, MOLM-13
[32] = secondary HTS, 72 h, average of triplicate, read-out: EC50 MOLM-13
[33] = secondary HTS, 72 h, average of triplicate, read-out: EC50 MV4-11
[34] = secondary high-throughput screen, read-out: average effective concentration, MV4-11
[35] = secondary HTS, 72 h, average of triplicate, read-out: EC50 CHRF288-11
[36] = secondary HTS, 72 h, average of triplicate, read-out: EC50 CMK
[37] = secondary high-throughput screen, read-out: average effective concentration, CMK
[38] = secondary HTS, 72 h, average of triplicate, read-out: EC50 CMS
[39] = secondary HTS, 72 h, average of triplicate, read-out: EC50 M07e
[40] = secondary HTS, 72 h, average of triplicate, read-out: EC50 U937
[41] = secondary high-throughput screen

SMILES | EC50 (U937 [4]; [30]) [µM] | EC50 (MOLM-13 [6]; [31]) [µM] | IC50 [7] [µM] | IC50 [8] [µM] | IC50 [9] [µM] | EC50 (MV4-11 [16]; [34]) [µM] | EC50 (CHRF288-11 [1]; [26]) [µM] | EC50 (CMS [2]; [27]) [µM] | EC50 (ML2; [29]) [µM] | active cell lines out of 8 in HTS [5] | EC50 (CMK [17]; [37]) [µM] | further results
CON(C)C(=O)N1N=C(c2cc(F)ccc2F)S[C@@]1(CCCN)c1ccccc1 [ARRY-520, reference compound] | 0.001 |  |  |  |  |  | 0.001 | 0.001 | 0.001 | 3/8 |  | EC50 (M07e [3]; [28]): 0.001 µM
CC(C)C[C@H](NC(=O)[C@H](CCc1ccccc1)NC(=O)CN1CCOCC1)C(=O)N[C@@H](Cc1ccccc1)C(=O)N[C@@H](CC(C)C)C(=O)[C@@]1(C)CO1 [Carfilzomib, reference compound] |  | 0.00544 | 0.0043 to 0.053 | 0.054 | 0.006 to 0.062 | 0.0011 | 0.019 |  |  |  | 0.006 | EC50 (MOLM-13 [6]; [32]): 0.01 µM; EC50 (MV4-11 [16]; [33]): 0.001 µM; EC50 (CHRF288-11 [1]; [35]): 0.02 µM; EC50 (CMK [17]; [36]): 0.01 µM; EC50 (CMS [2]; [38]): 0.001 µM; EC50 (M07e [3]; [39]): 0.001 µM; EC50 (M07e [3]; [28]): 0.0014 µM; EC50 (U937 [4]; [40]): 0.01 µM
CC(=O)O[C@H]1C(=O)[C@@]2(C)[C@H]([C@H](OC(=O)c3ccccc3)[C@]3(O)C[C@H](OC(=O)[C@H](O)[C@@H](NC(=O)c4ccccc4)c4ccccc4)C(C)=C1C3(C)C)[C@]1(OC(C)=O)CO[C@@H]1C[C@@H]2O [Paclitaxel, paclitaxel] |  |  |  |  |  |  |  |  |  |  |  | IC50 (CHRF288-11 [18]): 0.0249 µM; IC50 (CMS [19]): 0.0257 µM; IC50 (ML-2 [20]): 0.0035 µM; IC50 (MOLM-13 [21]): 0.003 µM; IC50 (MV4-11 [22]): 0.0021 µM; IC50 (THP-1): 0.0054 µM; IC50 (U937 [23]): 0.0025 µM
CC(=O)c1c(C)c2cnc(Nc3ccc(N4CCNCC4)cn3)nc2n(C2CCCC2)c1=O [Palbociclib, reference compound] | 10 |  | 1.11 to 4 | 5.17 | 0.979 to 5.26 |  |  | 9.1 |  |  | 3.5 | 
CCOc1cc(C(C)(C)C)ccc1C1=N[C@@](C)(c2ccc(Cl)cc2)[C@@](C)(c2ccc(Cl)cc2)N1C(=O)N1CCN(CCCS(C)(=O)=O)CC1 [RG7112, reference compound] |  | 0.29 | 0.149 to 0.845 |  | 0.077 to 0.952 | 2.5 |  |  | 6.8 |  |  | EC50 (M07e [3]; [28]): > 10 µM
C/C=C1\NC(=O)[C@H]2CSSCC/C=C/[C@H](CC(=O)N[C@H](C(C)C)C(=O)N2)OC(=O)[C@H](C(C)C)NC1=O [Romidepsin, reference compound] | 0.0032 | 0.00067 | 0.0016 to 0.006 | 0.005 | 0.0038 to 0.013 | 0.0006 | 0.0065 |  | 0.0038 |  | 0.008 | EC50 (MOLM-13 [6]; [32]): 0.001 µM; EC50 (MV4-11 [16]; [33]): 0.001 µM; EC50 (CHRF288-11 [1]; [35]): 0.01 µM; EC50 (CMK [17]; [36]): 0.01 µM; EC50 (CMS [2]; [38]): 0.001 µM; EC50 (M07e [3]; [39]): 0.002 µM; EC50 (M07e [3]; secondary high-throughput screen, […], read-out: average effective concentration, M07e): 0.0017 µM; EC50 (ML2; secondary HTS, 72 h, average of triplicate, read-out: EC50 ML2): 0.004 µM; EC50 (U937 [4]; [40]): 0.003 µM
CC[C@@H]1C(=O)N(C)c2cnc(Nc3ccc(C(=O)N[C@H]4CC[C@H](N5CCN(CC6CC6)CC5)CC4)cc3OC)nc2N1C(C)C [Volasertib, reference compound] | 0.001 |  | 0.062 to 0.482 | 0.353 | 0.0046 to 0.931 | 0.008 | 3.2 | 1.4 | 0.001 | 7/8 | 0.015 | 
COc1cc(OC)c(/C=C/S(=O)(=O)Cc2ccc(OC)c(NCC(=O)O)c2)c(OC)c1 [rigosertib, reference compound] | 0.005 | 0.006 |  |  |  |  | 0.017 | 0.011 | 0.015 | 7/8 | 0.00361 | 

The next lines start with results.

EC50 (U937 [4]; [30]) [µM] | EC50 (MOLM-13 [6]; [31]) [µM] | IC50 [7] [µM] | IC50 [8] [µM] | IC50 [9] [µM] | EC50 (MV4-11 [16]; [34]) [µM] | SMILES | EC50 (CHRF288-11 [1]; [26]) [µM] | EC50 (CMS [2]; [27]) [µM] | EC50 (ML2; [29]) [µM] | active cell lines out of 8 in HTS [5] | EC50 (CMK [17]; [37]) [µM] | further results
 | 8.3 | 0.105 to 4.32 | 0.441 | 0.0088 to 3.19 |  | COc1cc(Nc2ncc3c(n2)-c2ccc(Cl)cc2C(c2c(F)cccc2OC)=NC3)ccc1C(=O)O [Alisertib] |  | 4 |  | 4/8 |  | EC50 (MV4-11 [10]): > 10 µM; EC50 (CHRF288-11 [11]): > 10 µM; EC50 (CMK [12]): 0.0021 µM; EC50 (M07e [13]): > 10 µM; EC50 (ML-2 [14]): > 10 µM; EC50 (U937 [15]): > 10 µM
0.46 | 0.37 |  | > 10 |  | 0.21 | C=CCn1c(=O)c2cnc(Nc3ccc(N4CCN(C)CC4)cc3)nc2n1-c1cccc(C(C)(C)O)n1 [MK-1775, reference compound] | 10 | 0.63 | 0.21 | 7/8 | 0.21 | 
 |  | 0.0016 to 1.47 |  | 0.13 to 5.31 |  | CC(=O)Nc1cccc(-n2c(=O)n(C3CC3)c(=O)c3c(Nc4ccc(I)cc4F)n(C)c(=O)c(C)c32)c1 [Trametinib] |  |  | 0.001 |  |  | EC50 (MOLM-13 [24]): > 10 µM; EC50 (MV4-11 [10]): > 10 µM; EC50 (CHRF288-11 [11]): > 10 µM; EC50 (CMK [12]): > 10 µM; EC50 (CMS [25]): > 10 µM; EC50 (M07e [13]): > 10 µM; EC50 (U937 [15]): > 10 µM
 | > 10 | 0.046 to 1.05 |  | 0.0032 to 0.016 | 0.001 | CC1(C)CCC(CN2CCN(c3ccc(C(=O)NS(=O)(=O)c4ccc(NCC5CCOCC5)c([N+](=O)[O-])c4)c(Oc4cnc5[nH]ccc5c4)c3)CC2)=C(c2ccc(Cl)cc2)C1 [Venetoclax, reference compound] |  |  |  |  |  | average effective concentration, CHRF288-11 (CHRF288-11 [1]; secondary high-throughput screen, CHRF288-11): Inactive; average effective concentration, CMK (CMK [17]; [41]): Inactive; EC50 (CMS [2]; HTS, read-out: average effective concentration, CMS): > 10 µM; average effective concentration, M07e (M07e [3]; secondary high-throughput screen, M07e): Inactive; average effective concentration, ML-2 (ML2; [41]): Inactive; average effective concentration, U937 (U937 [4]; secondary high-throughput screen, U937): Inactive
0.001 | 0.007 |  |  |  | 0.001 | CCN(CCCOc1ccc2c(Nc3cc(CC(=O)Nc4cccc(F)c4)n[nH]3)ncnc2c1)CCOP(=O)(O)O [barasertib, reference compound] |  |  | 0.001 | 3/8 | 0.035 | 
